What was measured:
AMPA receptor = experiment: MEA recording with pharmacological intervention (NBQX); format: cell-based, human; settings: NBQX 10 μM, Hase-1000 samples at week 4, vs DMSO
Description: (§1) MEA recording of 3D-bioprinted mini-brains was performed from week 1 to week 4 after differentiation (day 10 to day 31 after digestion). The samples containing SNaPs were plated on Geltrex-coated 12-well MEA plates (Axion Biosystems, USA) in the differentiation medium. The samples were fed 2-3 times a week with partial medium change. Neuronal activities were measured every week using the Maestro 12-well MEA plate system (Axion Biosystems) for 5 min. After 4 weeks of culture in MEA plate, synaptic contents were tested using pharmacological inhibitors of neurotransmitter receptors. Specifically, neuronal activity was measured for 5 min by adding DMSO control before adding 10 μM of NBQX (Abcam) or 10 μM of D-APV (Abcam). The samples were incubated for 5-10 min, and neuronal activities were assessed again for 5 min. All the MEA data were analyzed using the Axion Integrated Studio 2.4.2 and the Neural Metric Tool (Axion Biosystems).

NMDA receptor = experiment: MEA recording with pharmacological intervention (D-APV); format: cell-based, human; settings: D-APV 50 μM (FIG. 8g legend), Hase-1000 samples at week 4, vs DMSO
Description: as §1, with “Specifically, neuronal activity was measured for 5 min by adding DMSO control before adding 10 μM of NBQX (Abcam) or 10 μM of D-APV (Abcam).” left out

Row | burst frequency (AMPA receptor) | mean firing rate (AMPA receptor) | burst frequency (NMDA receptor) | firing (NMDA receptor) | SMILES
1 | significantly reduced | significantly reduced |  |  | NS(=O)(=O)c1cccc2c1c([N+](=O)[O-])cc1nc(O)c(O)nc12 [NBQX, 2,3-dihydroxy-6-nitro-7-sulfamoyl-benzo(F)quinoxaline]
2 |  |  | significantly reduced | significantly reduced | N[C@H](CCCP(=O)(O)O)C(=O)O [D-APV, D-2-amino-5-phosphonovaleric acid]

Source: patent publication US20260071187A1, “MOLECULARLY CLEAVABLE BIOINK FORMULATION” (THE BRIGHAM AND WOMEN'S HOSPITAL, INC., priority 2022, published 2026)
